Results published in publication PMC11683478, “Bioprospecting of culturable marine biofilm bacteria for novel antimicrobial peptides” (iMeta, 2024).

Legend:
Experiment in all cases: Antibacterial screen at 200 μg/mL (cell density vs control)
Assay type in all cases: cell-based
Details in all cases: peptide 200 μg/mL, CAMHB, 5 × 10^5 CFU/mL, 37°C, 12 h, OD600; control (no AMP) = 1; three biological replicates
[1] = test system: Vibrio owensii ems001
Method: (§1) Eight bacterial strains were utilized in the antibacterial experiment. S. aureus ATCC 12600, B. subtilis ATCC 23857, E. coli ATCC 11775, and A. baumannii ATCC 19606 were purchased from Shanghai Beinuo Biology. M. luteus ATCC 4698 and S. bongori ATCC43975 were purchased from Shanghai Beisi Biotechnology. V. owensii ems001 and V. alginolyticus xv22 from the intestines of diseased shrimps were isolated in our laboratory. All strains were cultured in the cation‐adjusted Mueller‐Hinton broth (CAMHB) at 37°C to the logarithmic growth phase (OD600 = 0.5). Then, bacteria were gradient‐diluted using fresh CAMHB to a bacterial density of 5 × 10^5 CFU/mL. Antibacterial experiments were performed in a 96‐well plate with 200 μg/mL final peptide concentration. Four experimental groups were set up, including a blank control (200 μL CAMHB), a negative control (180 μL CAMHB plus 20 μL peptide), a positive control (180 μL bacterial culture plus 20 μL ultrapure water), and an experimental group (180 μL bacterial culture plus 20 μL peptide). Three biological replicates were conducted for each group, and OD600 values were measured after incubation at 37°C for 12 h. Every observed value was removed from the blank control group value. The value of the experimental group was then subtracted from the value of the negative control group therefore eradicating the effect of the peptide on the OD measurement. Student's t‐test allowed the estimation of a notable variation between the experimental and positive groups using a p‐value of 0.05 as the limit. […] The MIC of a peptide against a bacterium was determined as the minimum peptide concentration at which there was no visible bacterial growth.

[2] = test system: Staphylococcus aureus ATCC 12600
Method: as §1

[3] = test system: Vibrio alginolyticus xv22
Method: as §1

[4] = test system: Escherichia coli ATCC 11775
Method: as §1

[5] = test system: Micrococcus luteus ATCC 4698
Method: as §1

[6] = test system: Salmonella bongori ATCC 43975
Method: as §1

[7] = test system: Acinetobacter baumannii ATCC 19606
Method: as §1

[8] = test system: Bacillus subtilis ATCC 23857
Method: as §1

MKRLKKCVLSSLSI [Cand-126, chemically synthesized candidate AMP predicted from marine biofilm bacteria]
cell density relative to control, V. owensii ems001 [1]: 1 | cell density relative to control, S. aureus ATCC 12600 [2]: 0 | cell density relative to control, V. alginolyticus xv22 [3]: 0.039 | cell density relative to control, E. coli ATCC 11775 [4]: 0.448 | cell density relative to control, M. luteus ATCC 4698 [5]: 0 | cell density relative to control, S. bongori ATCC 43975 [6]: 0.299 | cell density relative to control, A. baumannii ATCC 19606 [7]: 0.191 | cell density relative to control, B. subtilis ATCC 23857 [8]: 0.301

MLKLSWNLCRPIGRRW [Cand-186, chemically synthesized candidate AMP predicted from marine biofilm bacteria]
cell density relative to control, V. owensii ems001 [1]: 0.091 | cell density relative to control, S. aureus ATCC 12600 [2]: 0.112 | cell density relative to control, V. alginolyticus xv22 [3]: 0.192 | cell density relative to control, E. coli ATCC 11775 [4]: 0.036 | cell density relative to control, M. luteus ATCC 4698 [5]: 0.164 | cell density relative to control, S. bongori ATCC 43975 [6]: 0.245 | cell density relative to control, A. baumannii ATCC 19606 [7]: 0.276 | cell density relative to control, B. subtilis ATCC 23857 [8]: 0

MLRRIGRMWRKLHPHGQ [Cand-10, chemically synthesized candidate AMP predicted from marine biofilm bacteria]
cell density relative to control, V. owensii ems001 [1]: 0.041 | cell density relative to control, S. aureus ATCC 12600 [2]: 0.007 | cell density relative to control, V. alginolyticus xv22 [3]: 0.001 | cell density relative to control, E. coli ATCC 11775 [4]: 0.001 | cell density relative to control, M. luteus ATCC 4698 [5]: 0.001 | cell density relative to control, S. bongori ATCC 43975 [6]: 0.009 | cell density relative to control, A. baumannii ATCC 19606 [7]: 0.009 | cell density relative to control, B. subtilis ATCC 23857 [8]: 0.032

MLTTIAKSTKKCKPKSCCACSLYRC [Cand-216, chemically synthesized candidate AMP predicted from marine biofilm bacteria]
cell density relative to control, V. owensii ems001 [1]: 0.018 | cell density relative to control, S. aureus ATCC 12600 [2]: 0.86 | cell density relative to control, V. alginolyticus xv22 [3]: 0 | cell density relative to control, E. coli ATCC 11775 [4]: 0.832 | cell density relative to control, M. luteus ATCC 4698 [5]: 0.978 | cell density relative to control, S. bongori ATCC 43975 [6]: 0.556 | cell density relative to control, A. baumannii ATCC 19606 [7]: 1 | cell density relative to control, B. subtilis ATCC 23857 [8]: 0.845

MPASRRCRPCCRLSGC [Cand-7, chemically synthesized candidate AMP predicted from marine biofilm bacteria]
cell density relative to control, V. owensii ems001 [1]: 0.114 | cell density relative to control, S. aureus ATCC 12600 [2]: 0.01 | cell density relative to control, V. alginolyticus xv22 [3]: 0.016 | cell density relative to control, E. coli ATCC 11775 [4]: 0.989 | cell density relative to control, M. luteus ATCC 4698 [5]: 1 | cell density relative to control, S. bongori ATCC 43975 [6]: 1 | cell density relative to control, A. baumannii ATCC 19606 [7]: 1 | cell density relative to control, B. subtilis ATCC 23857 [8]: 0.065

MPKRPWRACSSIG [Cand-212, chemically synthesized candidate AMP predicted from marine biofilm bacteria]
cell density relative to control, V. owensii ems001 [1]: 1 | cell density relative to control, S. aureus ATCC 12600 [2]: 0.896 | cell density relative to control, V. alginolyticus xv22 [3]: 1 | cell density relative to control, E. coli ATCC 11775 [4]: 1 | cell density relative to control, M. luteus ATCC 4698 [5]: 1 | cell density relative to control, S. bongori ATCC 43975 [6]: 0.839 | cell density relative to control, A. baumannii ATCC 19606 [7]: 0.835 | cell density relative to control, B. subtilis ATCC 23857 [8]: 1

MPKVKTKVCHRR [Cand-26, chemically synthesized candidate AMP predicted from marine biofilm bacteria]
cell density relative to control, V. owensii ems001 [1]: 0.917 | cell density relative to control, S. aureus ATCC 12600 [2]: 0.897 | cell density relative to control, V. alginolyticus xv22 [3]: 0 | cell density relative to control, E. coli ATCC 11775 [4]: 1 | cell density relative to control, M. luteus ATCC 4698 [5]: 1 | cell density relative to control, S. bongori ATCC 43975 [6]: 0.862 | cell density relative to control, A. baumannii ATCC 19606 [7]: 0.88 | cell density relative to control, B. subtilis ATCC 23857 [8]: 0.676

MQPILKKAAPKHVGYFYKCYL [Cand-119, chemically synthesized candidate AMP predicted from marine biofilm bacteria]
cell density relative to control, V. owensii ems001 [1]: 0.046 | cell density relative to control, S. aureus ATCC 12600 [2]: 0 | cell density relative to control, V. alginolyticus xv22 [3]: 0.73 | cell density relative to control, E. coli ATCC 11775 [4]: 0.618 | cell density relative to control, M. luteus ATCC 4698 [5]: 1 | cell density relative to control, S. bongori ATCC 43975 [6]: 0.699 | cell density relative to control, A. baumannii ATCC 19606 [7]: 0.908 | cell density relative to control, B. subtilis ATCC 23857 [8]: 0.838

MRHNMCRIGGRL [Cand-203, chemically synthesized candidate AMP predicted from marine biofilm bacteria]
cell density relative to control, V. owensii ems001 [1]: 1 | cell density relative to control, S. aureus ATCC 12600 [2]: 1 | cell density relative to control, V. alginolyticus xv22 [3]: 0.004 | cell density relative to control, E. coli ATCC 11775 [4]: 1 | cell density relative to control, M. luteus ATCC 4698 [5]: 0.966 | cell density relative to control, S. bongori ATCC 43975 [6]: 0.825 | cell density relative to control, A. baumannii ATCC 19606 [7]: 1 | cell density relative to control, B. subtilis ATCC 23857 [8]: 1

MRKGCKLIPCICDVNCRRRTG [Cand-8, chemically synthesized candidate AMP predicted from marine biofilm bacteria]
cell density relative to control, V. owensii ems001 [1]: 0.653 | cell density relative to control, S. aureus ATCC 12600 [2]: 0.364 | cell density relative to control, V. alginolyticus xv22 [3]: 0.286 | cell density relative to control, E. coli ATCC 11775 [4]: 0 | cell density relative to control, M. luteus ATCC 4698 [5]: 0 | cell density relative to control, S. bongori ATCC 43975 [6]: 0 | cell density relative to control, A. baumannii ATCC 19606 [7]: 0.201 | cell density relative to control, B. subtilis ATCC 23857 [8]: 0.257

MRPCMCRIGGGH [Cand-13, chemically synthesized candidate AMP predicted from marine biofilm bacteria]
cell density relative to control, V. owensii ems001 [1]: 1 | cell density relative to control, S. aureus ATCC 12600 [2]: 0.795 | cell density relative to control, V. alginolyticus xv22 [3]: 0.942 | cell density relative to control, E. coli ATCC 11775 [4]: 1 | cell density relative to control, M. luteus ATCC 4698 [5]: 1 | cell density relative to control, S. bongori ATCC 43975 [6]: 0.926 | cell density relative to control, A. baumannii ATCC 19606 [7]: 0.816 | cell density relative to control, B. subtilis ATCC 23857 [8]: 1

MRPCMCRIGGRL [Cand-19, chemically synthesized candidate AMP predicted from marine biofilm bacteria]
cell density relative to control, V. owensii ems001 [1]: 1 | cell density relative to control, S. aureus ATCC 12600 [2]: 1 | cell density relative to control, V. alginolyticus xv22 [3]: 1 | cell density relative to control, E. coli ATCC 11775 [4]: 1 | cell density relative to control, M. luteus ATCC 4698 [5]: 1 | cell density relative to control, S. bongori ATCC 43975 [6]: 0.929 | cell density relative to control, A. baumannii ATCC 19606 [7]: 1 | cell density relative to control, B. subtilis ATCC 23857 [8]: 1

MRPGMCRIGGRL [Cand-22, chemically synthesized candidate AMP predicted from marine biofilm bacteria]
cell density relative to control, V. owensii ems001 [1]: 1 | cell density relative to control, S. aureus ATCC 12600 [2]: 0.777 | cell density relative to control, V. alginolyticus xv22 [3]: 0.862 | cell density relative to control, E. coli ATCC 11775 [4]: 1 | cell density relative to control, M. luteus ATCC 4698 [5]: 1 | cell density relative to control, S. bongori ATCC 43975 [6]: 0.876 | cell density relative to control, A. baumannii ATCC 19606 [7]: 1 | cell density relative to control, B. subtilis ATCC 23857 [8]: 1

MRPRLRKRLLR [Cand-187, chemically synthesized candidate AMP predicted from marine biofilm bacteria]
cell density relative to control, V. owensii ems001 [1]: 1 | cell density relative to control, S. aureus ATCC 12600 [2]: 0.68 | cell density relative to control, V. alginolyticus xv22 [3]: 0.84 | cell density relative to control, E. coli ATCC 11775 [4]: 0.674 | cell density relative to control, M. luteus ATCC 4698 [5]: 0.703 | cell density relative to control, S. bongori ATCC 43975 [6]: 0.256 | cell density relative to control, A. baumannii ATCC 19606 [7]: 0.766 | cell density relative to control, B. subtilis ATCC 23857 [8]: 0.002

MRPSMCRIGGRL [Cand-38, chemically synthesized candidate AMP predicted from marine biofilm bacteria]
cell density relative to control, V. owensii ems001 [1]: 1 | cell density relative to control, S. aureus ATCC 12600 [2]: 0.771 | cell density relative to control, V. alginolyticus xv22 [3]: 1 | cell density relative to control, E. coli ATCC 11775 [4]: 0.861 | cell density relative to control, M. luteus ATCC 4698 [5]: 1 | cell density relative to control, S. bongori ATCC 43975 [6]: 1 | cell density relative to control, A. baumannii ATCC 19606 [7]: 0.836 | cell density relative to control, B. subtilis ATCC 23857 [8]: 0.805
